Measured values reported in the supplement of paper PMC11451515.

Tested on: NOMO1
Experiment: cell viability relative to DMSO control; higher = less cytotoxic
Conditions: 48 h
Outline: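 In 1536-well plates, 5 μl of leukemia cells were seeded per well: 500 cells/well for NOMO1 or SEM and 1000 cells/well for P12-Ichikawa. Each line had first been adapted for at least four passages in each medium. Library compounds in DMSO were pin-dosed at 11 threefold concentrations between 47 μM and 0.79 nM, and CellTiter-Glo One luminescence was read after 48 h at 37°C. Viability is a per-plate percentage relative to DMSO wells, with cell-free wells as background.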

[1] = HPLM + 10% dialyzed FBS, 0.000781 µM
[2] = HPLM + 10% dialyzed FBS, 0.00234 µM
[3] = HPLM + 10% dialyzed FBS, 0.00702 µM
[4] = HPLM + 10% dialyzed FBS, 0.0211 µM
[5] = HPLM + 10% dialyzed FBS, 0.0632 µM
[6] = HPLM + 10% dialyzed FBS, 0.19 µM
[7] = HPLM + 10% dialyzed FBS, 0.569 µM
[8] = HPLM + 10% dialyzed FBS, 1.71 µM
[9] = HPLM + 10% dialyzed FBS, 5.12 µM
[10] = HPLM + 10% dialyzed FBS, 15.4 µM
[11] = HPLM + 10% dialyzed FBS, 46.1 µM
[12] = RPMI 5 mM glucose + 10% FBS, 0.000781 µM
[13] = RPMI 5 mM glucose + 10% FBS, 0.00234 µM
[14] = RPMI 5 mM glucose + 10% FBS, 0.00702 µM
[15] = RPMI 5 mM glucose + 10% FBS, 0.0211 µM
[16] = RPMI 5 mM glucose + 10% FBS, 0.0632 µM
[17] = RPMI 5 mM glucose + 10% FBS, 0.19 µM
[18] = RPMI 5 mM glucose + 10% FBS, 0.569 µM
[19] = RPMI 5 mM glucose + 10% FBS, 1.71 µM
[20] = RPMI 5 mM glucose + 10% FBS, 5.12 µM
[21] = RPMI 5 mM glucose + 10% FBS, 15.4 µM
[22] = RPMI 5 mM glucose + 10% FBS, 46.1 µM
[23] = RPMI 5 mM glucose + 10% dialyzed FBS, 0.000781 µM
[24] = RPMI 5 mM glucose + 10% dialyzed FBS, 0.00234 µM
[25] = RPMI 5 mM glucose + 10% dialyzed FBS, 0.00702 µM
[26] = RPMI 5 mM glucose + 10% dialyzed FBS, 0.0211 µM
[27] = RPMI 5 mM glucose + 10% dialyzed FBS, 0.0632 µM
[28] = RPMI 5 mM glucose + 10% dialyzed FBS, 0.19 µM
[29] = RPMI 5 mM glucose + 10% dialyzed FBS, 0.569 µM
[30] = RPMI 5 mM glucose + 10% dialyzed FBS, 1.71 µM
[31] = RPMI 5 mM glucose + 10% dialyzed FBS, 5.12 µM
[32] = RPMI 5 mM glucose + 10% dialyzed FBS, 15.4 µM
[33] = RPMI 5 mM glucose + 10% dialyzed FBS, 46.1 µM

Structure (SMILES) | cell viability [1] [%] | cell viability [2] [%] | cell viability [3] [%] | cell viability [4] [%] | cell viability [5] [%] | cell viability [6] [%] | cell viability [7] [%] | cell viability [8] [%] | cell viability [9] [%] | cell viability [10] [%] | cell viability [11] [%] | cell viability [12] [%] | cell viability [13] [%] | cell viability [14] [%] | cell viability [15] [%] | cell viability [16] [%] | cell viability [17] [%] | cell viability [18] [%] | cell viability [19] [%] | cell viability [20] [%] | cell viability [21] [%] | cell viability [22] [%] | cell viability [23] [%] | cell viability [24] [%] | cell viability [25] [%] | cell viability [26] [%] | cell viability [27] [%] | cell viability [28] [%] | cell viability [29] [%] | cell viability [30] [%] | cell viability [31] [%] | cell viability [32] [%] | cell viability [33] [%]
N[S+](=O)([O-])c1cc2c(cc1Cl)NCN[S+]2(=O)[O-] | 111 | 97.3 | 105 | 109 | 122 | 111 | 122 | 121 | 103 | 105 | 102 | 108 | 109 | 114 | 109 | 101 | 113 | 119 | 117 | 117 | 112 | 98.8 | 109 | 101 | 112 | 106 | 122 | 136 | 117 | 124 | 111 | 112 | 101
CC/C(=C(\c1ccccc1)c1ccc(OCCN(C)C)cc1)c1ccccc1 | 95 | 122 | 107 | 99.5 | 119 | 113 | 113 | 92.4 | 111 | 92.5 | 49.1 | 94.8 | 102 | 102 | 115 | 103 | 101 | 94.1 | 99 | 96.1 | 105 | 76.7 | 93.1 | 99.2 | 104 | 103 | 115 | 110 | 114 | 99.8 | 117 | 81 | 34.7
O=C(c1ccc(C(=O)N2CCC(N3CCCC3)CC2)c(Nc2ccccc2)c1)N1CCC(N2CCCC2)CC1 | 98.6 | 110 | 104 | 103 | 105 | 111 | 112 | 104 | 102 | 113 | 112 | 85.6 | 98.2 | 90.3 | 95 | 106 | 91.7 | 82.3 | 94.3 | 99.7 | 92.6 | 107 | 101 | 110 | 111 | 98.6 | 98.2 | 104 | 101 | 109 | 96.7 | 96.3 | 97.3
CCCCc1ccc(N[S+](=O)([O-])c2ccc(C)c(C(=O)N3CCN(c4cccc(C)c4C)CC3)c2)cc1 |  |  |  |  |  |  |  |  |  |  |  |  |  |  |  |  |  |  |  |  |  |  | 125 | 128 | 120 | 126 | 126 | 130 | 130 | 119 | 131 | 126 | 108
COc1cc2nc(N3CCN(C(=O)c4ccco4)CC3)nc(N)c2cc1OC | 77.8 | 103 | 93.7 | 97 | 98.3 | 105 | 105 | 92.8 | 91.8 | 43 | 5.27 | 72.1 | 78.4 | 81.6 | 83.9 | 87.5 | 91.9 | 82.2 | 85.1 | 90.7 | 95.9 | 4.8 | 72 | 83.6 | 82.1 | 80.5 | 90 | 92.2 | 95.2 | 98.2 | 80.4 | 88.4 | 4.29
COC1=CC(=C2C(=O)N(COC/3=C/C(=O)N4\C=C/C=C(OCCN5CCCCC5)\C4=N3)[S+]([O-])(=O)C2=C1)C(C)C |  |  |  |  |  |  |  |  |  |  |  | 121 | 123 | 127 | 134 | 132 | 127 | 129 | 140 | 141 | 140 | 127 |  |  |  |  |  |  |  |  |  |  | 
O=P1(NCCCl)OCCCN1CCCl (stereo not drawn) | 90.5 | 102 | 96.8 | 104 | 97.7 | 84.6 | 119 | 117 | 99.7 | 109 | 76.1 | 82.3 | 88 | 79.4 | 77.2 | 77 | 89.2 | 83.5 | 86.8 | 91.1 | 76.8 | 79.4 | 86.9 | 87.6 | 81.1 | 85.3 | 85.6 | 87.9 | 87.4 | 97.5 | 84.6 | 98.5 | 78.1
Cc1nc(N)sc1-c1ccnc(Nc2ccc(N3CCOCC3)cc2)n1 | 95.3 | 117 | 111 | 120 | 110 | 114 | 115 | 112 | 87 | 79.6 | 82.8 | 93.7 | 91 | 96.5 | 95.5 | 105 | 114 | 105 | 105 | 71.2 | 85.2 | 55.5 | 95.6 | 112 | 116 | 109 | 115 | 106 | 110 | 111 | 69.3 | 72.6 | 61.7
CC[P](CC)(CC)=[Au][S][C@@H]1O[C@H](COC(C)=O)[C@@H](OC(C)=O)[C@H](OC(C)=O)[C@H]1OC(C)=O | 118 | 121 | 119 | 109 | 120 | 105 | 115 | 55.6 | 9.31 | 3.26 | 2.08 | 99.7 | 115 | 105 | 109 | 116 | 87 | 90.4 | 26.9 | 6.9 | 2.16 | 1.83 | 95 | 125 | 111 | 125 | 102 | 114 | 108 | 48.9 | 11.6 | 3.14 | 1.73
